Measurements published in ChEMBL document CHEMBL5104137, “The overview of Mitogen-activated extracellular signal-regulated kinase (MEK)-based dual inhibitor in the treatment of cancers” (Bioorg Med Chem, 2022).
Each block holds one molecule with its values, some of them ahead of it.

Columns and labels:
[1] = Inhibition of Xenopus laevis Aurora Kinase C
[2] = Cmax in BomTac:NMRI-Foxn1 mouse xenografted with human Calu6 cells harboring KRAS Q61K mutant at 70 mg/kg per week, po via gavage by electrochemo-luminescence analysis; assay type: ADME, organism-based, Calu-6; set-up: dose 70 mg/kg, route po; conditions: in vivo
Aurora kinase B-B = Aurora kinase B-B (Xenopus laevis, UniProt Q6GPL3); assay: Inhibition of Xenopus laevis Aurora Kinase B
Chain of Aurora kinase B-B (Q6GPL3 whole entry): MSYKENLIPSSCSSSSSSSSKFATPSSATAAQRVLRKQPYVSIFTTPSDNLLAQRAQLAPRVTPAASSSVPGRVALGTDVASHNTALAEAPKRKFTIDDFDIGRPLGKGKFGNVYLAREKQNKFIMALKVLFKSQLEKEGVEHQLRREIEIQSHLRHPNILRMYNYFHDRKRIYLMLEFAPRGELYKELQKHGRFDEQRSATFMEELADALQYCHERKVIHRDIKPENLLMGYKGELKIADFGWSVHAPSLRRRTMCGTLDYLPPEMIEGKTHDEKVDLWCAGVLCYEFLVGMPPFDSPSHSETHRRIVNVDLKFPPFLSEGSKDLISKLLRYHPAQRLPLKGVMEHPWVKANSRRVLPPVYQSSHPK

[3] = Cmax in BomTac:NMRI-Foxn1 mouse xenografted with human Calu6 cells harboring KRAS Q61K mutant at 10 mg/kg per day, po via gavage measured after 24 hrs by electrochemo-luminescence analysis; assay type: ADME, organism-based, Calu-6; set-up: time 24 hrs, dose 10 mg/kg, route po; conditions: in vivo
[4] = Cmax in BomTac:NMRI-Foxn1 mouse xenografted with human Calu6 cells harboring KRAS Q61K mutant at 10 mg/kg per day, po via gavage by electrochemo-luminescence analysis; assay type: ADME, organism-based, Calu-6; set-up: dose 10 mg/kg, route po; conditions: in vivo
[5] = Cmax in BomTac:NMRI-Foxn1 mouse xenografted with human Calu6 cells harboring KRAS Q61K mutant at 70 mg/kg per week, po via gavage measured after 24 hrs by electrochemo-luminescence analysis; assay type: ADME, organism-based, Calu-6; set-up: dose 70 mg/kg, time 24 hrs, route po; conditions: in vivo
SK-MEL-28 = assay: Antiproliferative activity against human SK-MEL-28 cells harboring BRAF V600E mutant assessed as cell growth inhibition measured after 72 hrs by WST-8 assay; assay type: functional, cell-based; conditions: SK-MEL-28, 72 h
[6] = Inhibition of human MEK using 5-Fl-SGQLIDSMANSFV-NH2 peptide as substrate by FRET assay
HCT-116 = assay: Antiproliferative activity against human HCT-116 cells harboring […] mutant assessed as cell growth inhibition measured after 72 hrs by WST-8 assay; assay type: functional, cell-based; conditions: HCT-116, 72 h
MIA PaCa-2 = assay: Antiproliferative activity against human MIA PaCa-2 cells harboring […] mutant assessed as cell growth inhibition measured after 72 hrs by WST-8 assay; assay type: functional, cell-based; conditions: MIA PaCa-2, 72 h
[7] = biological target: Serine/threonine-protein kinase B-raf (Homo sapiens, UniProt P15056, V600E); assay: Inhibition of human BRAF V600E mutant using 5-Fl-SGQLIDSMANSFV-NH2 peptide as substrate by FRET assay
Chain of Serine/threonine-protein kinase B-raf (Homo sapiens, UniProt P15056, V600E) (P15056 2-766 V600E limits assumed): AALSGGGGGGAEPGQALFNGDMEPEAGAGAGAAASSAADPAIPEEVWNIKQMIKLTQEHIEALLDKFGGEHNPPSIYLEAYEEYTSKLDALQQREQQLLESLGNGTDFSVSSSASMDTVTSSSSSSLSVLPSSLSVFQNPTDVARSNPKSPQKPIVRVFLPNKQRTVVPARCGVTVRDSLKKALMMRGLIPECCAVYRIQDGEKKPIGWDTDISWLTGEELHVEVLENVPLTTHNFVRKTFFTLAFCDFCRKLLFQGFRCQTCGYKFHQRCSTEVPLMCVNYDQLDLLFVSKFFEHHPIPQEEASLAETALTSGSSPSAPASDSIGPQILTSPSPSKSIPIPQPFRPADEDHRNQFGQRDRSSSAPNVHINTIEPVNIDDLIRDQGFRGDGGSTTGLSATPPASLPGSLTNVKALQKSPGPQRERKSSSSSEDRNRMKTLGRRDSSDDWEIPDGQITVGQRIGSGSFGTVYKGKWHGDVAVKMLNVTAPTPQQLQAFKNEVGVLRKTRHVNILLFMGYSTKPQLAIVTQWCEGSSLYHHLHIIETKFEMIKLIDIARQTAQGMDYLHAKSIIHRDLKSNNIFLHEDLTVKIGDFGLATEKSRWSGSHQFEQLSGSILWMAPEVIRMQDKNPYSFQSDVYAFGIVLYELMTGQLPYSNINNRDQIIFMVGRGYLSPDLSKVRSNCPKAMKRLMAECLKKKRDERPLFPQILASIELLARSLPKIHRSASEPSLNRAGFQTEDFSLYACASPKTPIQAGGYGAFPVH

SW480 = assay: Antiproliferative activity against human SW480 cells harboring […] mutant assessed as cell growth inhibition measured after 72 hrs by WST-8 assay; assay type: functional, cell-based; conditions: SW480, 72 h
SK-MEL-2 = assay: Antiproliferative activity against human SK-MEL-2 cells harboring NRAS Q61R mutant assessed as cell growth inhibition measured after 72 hrs by WST-8 assay; assay type: functional, cell-based; conditions: SK-MEL-2, 72 h
[8] = biological target: Serine/threonine-protein kinase B-raf (Homo sapiens, UniProt P15056); assay: Inhibition of wild type human BRAF using 5-Fl-SGQLIDSMANSFV-NH2 peptide as substrate by FRET assay
Chain of Serine/threonine-protein kinase B-raf (Homo sapiens, UniProt P15056) (P15056 whole entry): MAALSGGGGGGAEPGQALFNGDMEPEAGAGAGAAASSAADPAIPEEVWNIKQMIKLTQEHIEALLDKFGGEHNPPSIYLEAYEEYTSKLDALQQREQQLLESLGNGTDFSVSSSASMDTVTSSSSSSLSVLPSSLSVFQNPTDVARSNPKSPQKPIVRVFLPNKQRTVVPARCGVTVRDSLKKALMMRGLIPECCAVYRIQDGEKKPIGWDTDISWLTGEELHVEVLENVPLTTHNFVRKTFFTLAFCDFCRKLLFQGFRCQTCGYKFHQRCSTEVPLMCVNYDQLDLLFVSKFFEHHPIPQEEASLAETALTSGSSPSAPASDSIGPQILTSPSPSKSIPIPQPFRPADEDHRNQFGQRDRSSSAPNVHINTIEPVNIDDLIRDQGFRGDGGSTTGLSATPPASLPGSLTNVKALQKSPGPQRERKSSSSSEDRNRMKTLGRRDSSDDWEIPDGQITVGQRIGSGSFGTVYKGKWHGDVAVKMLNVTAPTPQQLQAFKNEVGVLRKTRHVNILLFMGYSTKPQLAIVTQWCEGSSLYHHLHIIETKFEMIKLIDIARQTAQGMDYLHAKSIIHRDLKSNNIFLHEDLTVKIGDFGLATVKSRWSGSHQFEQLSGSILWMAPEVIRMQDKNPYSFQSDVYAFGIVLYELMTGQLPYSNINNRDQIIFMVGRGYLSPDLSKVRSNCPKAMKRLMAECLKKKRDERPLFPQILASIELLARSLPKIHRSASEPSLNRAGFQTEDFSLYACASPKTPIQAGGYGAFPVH

[9] = Antiproliferative activity against human CT-TC cells harboring HRAS Q61K mutant assessed as cell growth inhibition measured after 72 hrs by WST-8 assay; assay type: functional, cell-based
BaF3 [10] = assay: Antiproliferative activity against […] cells harboring D835Y mutant assessed as cell growth inhibition by trypan blue staining based assay; assay type: functional; conditions: Mus musculus
BaF3 [11] = assay: Antiproliferative activity against […] cells harboring D835G mutant assessed as cell growth inhibition by trypan blue staining based assay; assay type: functional; conditions: Mus musculus
MOLM-13 = assay: Antiproliferative activity against human MOLM13 cells harboring FLT3-ITD mutant assessed as cell growth inhibition by Trypan blue staining based assay; assay type: functional
MV4-11 = assay: Antiproliferative activity against human MV4-11 cells harboring FLT3-ITD mutant assessed as cell growth inhibition by trypan blue staining based assay; assay type: functional

SMILES: CCNC(=O)C#Cc1ccc2c(c1)NC(=O)/C2=C(\Nc1ccc(CN(C)C)cc1)c1ccccc1
IC50 [1]: 15 nM | Cmax [2]: 2700 nM | IC50 (Aurora kinase B-B): 3 nM | Cmax [3]: 13 nM | Cmax [4]: 380 nM | Cmax [5]: 460 nM

IC50 (SK-MEL-28): 65 nM | IC50 [6]: 160 nM | IC50 (HCT-116): 277 nM | IC50 (MIA PaCa-2): 40 nM | IC50 [7]: 8.2 nM | IC50 (SW480): 46 nM | IC50 (SK-MEL-2): 28 nM | IC50 [8]: 19 nM
SMILES: CNS(=O)(=O)Nc1nccc(Cc2c(C)c3ccc(Oc4ncccn4)cc3oc2=O)c1F [AVUTOMETINIB]
IC50 [9]: 360 nM

SMILES: CCNc1cc(O)c2c(c1)/C=C/C[C@H](O)[C@H](O)C(=O)/C=C\[C@@H](C)[C@H](C)OC2=O [E-6201]
IC50 (BaF3 [10]): 26 nM | IC50 (BaF3 [11]): 4.6 nM | IC50 (MOLM-13): 5 nM | IC50 (MV4-11): 2 nM
